Molecules are shown by their SMILES.

Common to all, as to assay: biochemical
What all share (parameters): KINOMEscan competition binding panel (Eurofins DiscoverX), single concentration, % inhibition
Details in all cases: read-out: 7 at 1 µM % inhibition

For assay [1], the target named is T1, ABL1(F317L)-phosphorylated (Homo sapiens, UniProt P00519, F317L).
T1 construct: phosphorylated
As to the method: (§1) KinomeScan® Assay on 7 and 15 was performed as previously described by EuroFins DiscoverX [24]. GSK114 (7) and 15 were submitted for a KINOMEscan® assay to explore the selectivity profile across >400 human kinases at a compound concentration of 1 µM. […] GSK114 (7) is a narrow-spectrum TNNi3K inhibitor but has some potent off-targets including GAK which has been previously reported for this chemotype. […] If utilized together this set of compounds could be useful to investigate TNNi3K biology.

The target in assay [2] is T2, ABL1(M351T)-phosphorylated (Homo sapiens, UniProt P00519, M351T).
T2 construct: phosphorylated
As to the method: as §1

In another assay the target is T3, ASK2 (Homo sapiens, UniProt O95382).
T3 construct: gene MAP3K6
The method, then:
as §1

In the next assay the target is BMX (Homo sapiens, UniProt P51813). The method, then: as §1
A further assay addresses BRAF(V600E) (Homo sapiens, UniProt P15056, V600E). The method, then: as §1
A further assay addresses CDK4 (Homo sapiens, UniProt P11802). As to the method: as §1
In the next assay the target is CSK (Homo sapiens, UniProt P41240). As to the method: as §1
Chain of CSK (P41240 whole entry): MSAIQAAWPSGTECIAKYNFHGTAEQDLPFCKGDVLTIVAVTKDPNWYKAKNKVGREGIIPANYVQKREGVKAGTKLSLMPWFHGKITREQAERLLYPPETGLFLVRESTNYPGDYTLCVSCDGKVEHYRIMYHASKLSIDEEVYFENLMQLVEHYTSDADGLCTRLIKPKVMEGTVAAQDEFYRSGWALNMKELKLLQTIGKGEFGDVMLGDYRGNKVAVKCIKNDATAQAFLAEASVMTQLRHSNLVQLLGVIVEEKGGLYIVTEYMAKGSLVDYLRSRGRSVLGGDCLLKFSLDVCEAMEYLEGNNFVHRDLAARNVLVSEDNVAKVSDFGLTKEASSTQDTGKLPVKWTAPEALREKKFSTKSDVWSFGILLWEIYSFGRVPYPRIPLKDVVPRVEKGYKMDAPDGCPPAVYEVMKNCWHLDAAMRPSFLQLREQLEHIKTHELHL
The target in another assay is EGFR(G719C) (Homo sapiens, UniProt P00533, G719C). The method, then: as §1
The target in another assay is ERBB2 (Homo sapiens, UniProt P04626). As to the method:
as §1

The target of the next assay is T4, ERK3 (Homo sapiens, UniProt Q16659).
T4 construct: gene MAPK6
As to the method:
as §1

A further assay has as its target FLT3(R834Q) (Homo sapiens, UniProt P36888, R834Q). The method, then:
as §1

The next assay has as its target KIT(A829P) (Homo sapiens, UniProt P10721, A829P). The method, then:
as §1

Another assay has as its target T5, LZK (Homo sapiens, UniProt O43283).
T5 construct: gene MAP3K13
As to the method:
as §1

Another assay deals with MAPKAPK5 (Homo sapiens, UniProt Q8IW41). The method, then: as §1
Chain of MAPKAPK5 (Q8IW41 whole entry): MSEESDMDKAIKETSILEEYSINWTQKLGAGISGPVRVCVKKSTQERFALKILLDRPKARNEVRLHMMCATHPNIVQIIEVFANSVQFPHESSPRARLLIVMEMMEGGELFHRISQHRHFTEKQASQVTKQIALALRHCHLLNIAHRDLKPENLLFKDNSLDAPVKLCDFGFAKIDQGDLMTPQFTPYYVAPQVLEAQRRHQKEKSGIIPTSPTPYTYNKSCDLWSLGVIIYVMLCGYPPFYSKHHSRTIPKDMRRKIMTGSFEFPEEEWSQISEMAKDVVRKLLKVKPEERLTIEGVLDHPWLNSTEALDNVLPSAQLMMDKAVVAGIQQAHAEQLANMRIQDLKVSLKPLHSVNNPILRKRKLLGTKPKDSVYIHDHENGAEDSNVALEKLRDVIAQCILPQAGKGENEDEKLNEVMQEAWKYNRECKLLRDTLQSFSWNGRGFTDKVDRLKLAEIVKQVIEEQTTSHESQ
In another assay the target is MERTK (Homo sapiens, UniProt Q12866). As to the method:
as §1

The target of the next assay is MET (Homo sapiens, UniProt P08581). As to the method:
as §1

For the next assay, the target named is MYO3B (Homo sapiens, UniProt Q8WXR4). As to the method:
as §1

The target of the next assay is T6, NDR1 (Homo sapiens, UniProt Q15208).
T6 construct: gene STK38
T6 sequence (Q15208 whole entry): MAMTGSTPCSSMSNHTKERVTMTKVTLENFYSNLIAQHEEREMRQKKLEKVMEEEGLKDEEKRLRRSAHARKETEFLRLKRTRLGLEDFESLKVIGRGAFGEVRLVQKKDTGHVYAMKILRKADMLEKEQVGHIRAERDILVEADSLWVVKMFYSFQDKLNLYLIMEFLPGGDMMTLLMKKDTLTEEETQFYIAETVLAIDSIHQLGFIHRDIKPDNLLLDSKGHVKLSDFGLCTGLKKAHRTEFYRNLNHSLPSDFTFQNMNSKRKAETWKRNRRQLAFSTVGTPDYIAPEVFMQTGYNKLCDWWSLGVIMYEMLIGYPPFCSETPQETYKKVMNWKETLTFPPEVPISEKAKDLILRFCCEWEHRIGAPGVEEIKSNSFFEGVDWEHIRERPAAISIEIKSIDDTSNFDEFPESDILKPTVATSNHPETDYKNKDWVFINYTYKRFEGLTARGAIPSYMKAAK
As to the method:
as §1

A further assay addresses T7, NIK (Homo sapiens, UniProt Q99558).
T7 construct: gene MAP3K14
The method, then:
as §1

A further assay concerns the target PIM3 (Homo sapiens, UniProt Q86V86). The method, then:
as §1

A further assay has as its target RET (Homo sapiens, UniProt P07949). The method, then: as §1
Assay [3] addresses T8, RSK4(Kin.Dom.1-N-terminal) (Homo sapiens, UniProt Q9UK32).
T8 construct: gene RPS6KA6; Kin.Dom.1-N-terminal
The method, then:
as §1

In another assay the target is T9, SgK110 (Homo sapiens, UniProt P0C264).
T9 construct: gene SBK3
T9 sequence (P0C264 whole entry): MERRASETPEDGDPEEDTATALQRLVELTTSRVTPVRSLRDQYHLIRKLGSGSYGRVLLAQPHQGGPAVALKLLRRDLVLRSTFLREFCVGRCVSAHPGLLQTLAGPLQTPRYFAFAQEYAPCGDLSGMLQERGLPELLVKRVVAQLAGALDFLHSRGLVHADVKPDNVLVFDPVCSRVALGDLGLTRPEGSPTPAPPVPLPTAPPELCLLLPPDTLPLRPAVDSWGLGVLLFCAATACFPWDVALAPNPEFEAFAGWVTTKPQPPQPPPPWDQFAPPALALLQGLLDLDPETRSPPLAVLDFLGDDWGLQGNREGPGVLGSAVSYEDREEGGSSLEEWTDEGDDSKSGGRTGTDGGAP
As to the method: as §1

The next assay deals with TSSK1B (Homo sapiens, UniProt Q9BXA7). As to the method:
as §1

Chain of KIT(A829P) (P10721 whole entry A829P): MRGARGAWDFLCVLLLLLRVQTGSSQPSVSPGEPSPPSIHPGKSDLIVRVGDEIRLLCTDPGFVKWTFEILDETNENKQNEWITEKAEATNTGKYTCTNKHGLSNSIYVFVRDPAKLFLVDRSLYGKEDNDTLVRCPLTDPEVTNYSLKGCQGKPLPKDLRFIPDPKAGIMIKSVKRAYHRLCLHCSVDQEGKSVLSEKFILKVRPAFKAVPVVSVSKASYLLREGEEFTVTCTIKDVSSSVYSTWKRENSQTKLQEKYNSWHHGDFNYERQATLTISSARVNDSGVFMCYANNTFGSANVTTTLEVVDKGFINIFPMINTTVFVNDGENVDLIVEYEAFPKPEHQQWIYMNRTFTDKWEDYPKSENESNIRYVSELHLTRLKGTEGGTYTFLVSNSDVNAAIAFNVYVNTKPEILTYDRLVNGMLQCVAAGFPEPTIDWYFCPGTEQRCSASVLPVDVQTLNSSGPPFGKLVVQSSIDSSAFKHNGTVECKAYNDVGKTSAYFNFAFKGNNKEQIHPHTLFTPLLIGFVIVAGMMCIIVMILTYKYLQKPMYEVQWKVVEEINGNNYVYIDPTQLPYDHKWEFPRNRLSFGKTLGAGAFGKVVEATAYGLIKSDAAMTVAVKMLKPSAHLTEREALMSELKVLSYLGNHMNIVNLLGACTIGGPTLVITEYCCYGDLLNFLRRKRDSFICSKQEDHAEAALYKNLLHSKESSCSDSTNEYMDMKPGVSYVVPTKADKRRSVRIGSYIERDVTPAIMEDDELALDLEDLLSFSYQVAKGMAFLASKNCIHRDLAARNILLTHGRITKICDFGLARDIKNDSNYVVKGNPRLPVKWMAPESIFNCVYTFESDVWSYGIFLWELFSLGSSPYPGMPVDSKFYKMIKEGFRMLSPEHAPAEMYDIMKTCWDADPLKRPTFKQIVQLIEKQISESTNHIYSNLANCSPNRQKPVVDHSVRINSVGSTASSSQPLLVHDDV
Chain of MERTK (Q12866 whole entry): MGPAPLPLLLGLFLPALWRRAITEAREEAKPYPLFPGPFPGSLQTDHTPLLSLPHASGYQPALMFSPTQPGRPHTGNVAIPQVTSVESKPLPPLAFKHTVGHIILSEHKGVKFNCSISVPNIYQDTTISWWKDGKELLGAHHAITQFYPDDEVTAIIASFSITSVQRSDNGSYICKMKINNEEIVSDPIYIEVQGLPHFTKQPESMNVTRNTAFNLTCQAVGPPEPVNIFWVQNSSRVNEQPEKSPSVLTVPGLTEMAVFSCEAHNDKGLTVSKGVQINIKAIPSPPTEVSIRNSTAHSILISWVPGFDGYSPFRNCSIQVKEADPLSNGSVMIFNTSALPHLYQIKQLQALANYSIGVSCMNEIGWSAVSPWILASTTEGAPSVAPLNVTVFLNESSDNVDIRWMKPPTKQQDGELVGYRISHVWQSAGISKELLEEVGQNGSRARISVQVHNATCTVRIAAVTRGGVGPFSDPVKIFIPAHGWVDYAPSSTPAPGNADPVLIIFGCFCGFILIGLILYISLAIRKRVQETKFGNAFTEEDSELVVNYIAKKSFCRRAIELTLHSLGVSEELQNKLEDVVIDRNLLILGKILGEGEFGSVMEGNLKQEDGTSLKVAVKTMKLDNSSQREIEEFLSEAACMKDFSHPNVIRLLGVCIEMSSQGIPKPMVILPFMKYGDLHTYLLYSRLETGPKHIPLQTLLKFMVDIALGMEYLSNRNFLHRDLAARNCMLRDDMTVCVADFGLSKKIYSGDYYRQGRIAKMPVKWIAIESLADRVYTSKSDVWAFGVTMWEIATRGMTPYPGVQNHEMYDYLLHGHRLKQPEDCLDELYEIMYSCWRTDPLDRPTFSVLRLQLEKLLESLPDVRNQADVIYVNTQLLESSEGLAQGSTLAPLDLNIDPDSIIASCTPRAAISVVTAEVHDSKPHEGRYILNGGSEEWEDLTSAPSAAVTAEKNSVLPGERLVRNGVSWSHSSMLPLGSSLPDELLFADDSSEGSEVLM
T7 sequence (Q99558 whole entry): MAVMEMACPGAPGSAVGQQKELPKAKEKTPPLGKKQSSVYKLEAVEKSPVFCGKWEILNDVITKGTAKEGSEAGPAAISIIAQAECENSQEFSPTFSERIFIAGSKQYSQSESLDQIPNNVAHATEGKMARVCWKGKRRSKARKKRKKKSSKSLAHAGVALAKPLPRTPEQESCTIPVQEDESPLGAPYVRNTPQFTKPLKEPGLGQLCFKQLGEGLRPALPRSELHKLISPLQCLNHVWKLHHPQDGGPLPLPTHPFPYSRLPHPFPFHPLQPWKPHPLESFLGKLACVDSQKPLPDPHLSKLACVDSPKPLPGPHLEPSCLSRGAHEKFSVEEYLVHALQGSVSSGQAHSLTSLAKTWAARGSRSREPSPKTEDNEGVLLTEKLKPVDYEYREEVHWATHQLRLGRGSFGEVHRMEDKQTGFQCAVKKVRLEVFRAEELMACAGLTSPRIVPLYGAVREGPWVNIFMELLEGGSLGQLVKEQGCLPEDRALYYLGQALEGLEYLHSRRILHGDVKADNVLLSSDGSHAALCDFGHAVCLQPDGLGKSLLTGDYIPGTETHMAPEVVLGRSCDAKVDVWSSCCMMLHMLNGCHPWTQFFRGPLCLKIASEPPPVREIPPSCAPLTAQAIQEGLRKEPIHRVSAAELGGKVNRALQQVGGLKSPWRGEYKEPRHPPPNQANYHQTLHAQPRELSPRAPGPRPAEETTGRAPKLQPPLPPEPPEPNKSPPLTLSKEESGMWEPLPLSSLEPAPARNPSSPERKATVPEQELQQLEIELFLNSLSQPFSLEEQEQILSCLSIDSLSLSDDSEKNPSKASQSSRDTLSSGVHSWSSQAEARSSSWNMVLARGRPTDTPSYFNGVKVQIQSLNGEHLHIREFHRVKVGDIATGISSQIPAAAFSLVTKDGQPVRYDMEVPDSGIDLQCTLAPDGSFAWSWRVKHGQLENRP

`CNS(=O)(=O)c1ccc(N(C)C)c(Nc2ncnc3cc(OC)c(OC)cc23)c1` [compound 7, 3-((6,7-dimethoxyquinazolin-4-yl)amino)-4-(dimethylamino)-N-methylbenzenesulfonamide]: the inhibition at 1 µM in [1] was found to be 0%; in assay [2] it was 6%; at ASK2 it was 30%; on BMX it was 0%; on BRAF(V600E), 83%; on CDK4 it was 0%. In addition, the inhibition at 1 µM on CSK amounted to 0%; at EGFR(G719C), 0%; on ERBB2 it was 0%; on ERK3 it was 0%; at FLT3(R834Q) it was 31%; at KIT(A829P) it was 61%. Further, the inhibition at 1 µM on LZK came out at 23%; at MAPKAPK5, 27%; on MERTK, 0%; on MET it was 3%; on MYO3B it was 0%; at NDR1, 0%. The inhibition at 1 µM at NIK is 0%; at PIM3, 0%; on RET, 11%; in assay [3], 34%; at SgK110, 0%; on TSSK1B it was 0%.
